Laboratory results published in patent US12060336B1, “(2E)-4-[(4-chlorophenyl)amino]-N-phenyl-2-(phenylimino)-1,3,5-dioxazepine-7-carboxamide as an eco-friendly insecticidal agent against Spodoptera littoralis (boisd.)” (King Faisal University, priority 2023, dated 2024).
In brackets after ≈: the same amount, converted by molar mass. Where two headings read alike, the source gives them in different places.

Assays:
[1] = system: Spodoptera littoralis larvae; experiment: Insecticidal leaf dip bioassay screening; details: for Toxicity index %: 72 hours, fenoxycarb's LC50/compound's LC50 * 100; for LC50: Spodoptera littoralis, foliar, 72 h
Procedure: Five concentrations (200, 100, 50, 25, 12.5 ppm) were designed for this synthetic compound and the reference fenoxycarb's compound as the dynamic ingredients based on ppm via diluting the commercial formulation.
In this experiment, the synthetic compound was tested for its insecticidal bioactivity using the industry-standard leaf dip bioassay techniques. Preparation of the compound stocks to create 1000 ppm, 0.1 g of compounds 2 were dissolved in five mL of Dimethyl formamide & combined with 5 mL of distilled water. Until usage, the stocks were kept in a refrigerator. The target substance test results were noted & the concentrations needed to destroy 50% (LC50) of S. littoralis larvae were calculated. The target compound was employed in five different concentrations, & 0.1% Tween 80 was employed as a surfactant. Castor bean leaf discs (nine centimeters in diameter) were dipped in the concentration under test for ten seconds, then fed to 2th & 4th larvae, which were roughly the same size and housed in glass jars (five pound). Each action carried out 3 times with ten larvae each. The mortality equalized via Abbott's formula. Calculations of mortality setback line were measurably rummage via probity analysis. Harmfulness index was strongminded via sun equations. The mortality results of larval insect were estimated through employing probit analysis through a statistics (LDP-line) equation which estimate the LC50 values with 95% fiducially limits of lower, upper confidence limit and slope.

aquatic insects = details: cited from earlier work
[2] = read-out: LC50 (mg/L) at 95%, 2nd instar larvae, laboratory strain S. littoralis, after 72 hours of treatment
[3] = read-out: LC50 (mg/L) at 95%, 4th instar larvae, laboratory strain S. littoralis, after 72 hours of treatment

O=C(Nc1ccccc1)C1=CN=C(Nc2ccc(Cl)cc2)O/C(=N/c2ccccc2)O1 [Compound 2, (2E)-4-[(4-chlorophenyl)amino]-N-phenyl-2-(phenylimino)-1,3,5-dioxazepine-7-carboxamide]
activity against Spodoptera littoralis ([1]; 2nd and 4th instar larvae, FIGS. 1A-1B, compared with Fenoxycarb): active against Spodoptera littoralis
Toxicity index % ([1]; 2nd instar larvae): 10.31%
Toxicity index % ([1]; 4th instar larvae): 23.54%
LC50 [1, 2]: 57.6 mg/L (≈ 133 µM)
LC50 [1, 3]: ~254 mg/L (≈ 588 µM)

CCOC(=O)NCCOc1ccc(Oc2ccccc2)cc1 [fenoxycarb, reference compound]
Toxicity index % ([1]; 2nd instar larvae): 100%
Toxicity index % ([1]; 4th instar larvae): 100%
LC50 [1, 2]: 5.94 mg/L (≈ 19.7 µM)
LC50 [1, 3]: 59.9 mg/L (≈ 199 µM)

CCc1ccc(C(=O)NN(C(=O)c2cc(C)cc(C)c2)C(C)(C)C)cc1 [tebufenozide]
LC50 (aquatic insects): 100 to 1000 µg/mL
